Reference: patent US20040110775A1, “Cyclin dependent kinase inhibiting purine derivatives” (priority 2001, published 2004)
Like-named read-outs stand apart in the source and are kept apart here.

What was measured:
[1] = disclosed in WO 99/02162; cited from earlier work
[2] = biological target: p34 cdc2(CDK1)/cyclinB; test: CDK assay: histone H1 phosphorylation with [32P]ATP by cdc2/cyclinB kinase; type: biochemical, starfish (Marthasterias glacialis); settings: read-out: IC50 ± SD CDK1
Procedure: Assays are available for testing the inhibitory activity of the compounds of interest against a range of CDK/cyclin complexes, including CDK1/cyclin A, CDK1/cyclin B, CDK1/cyclin F, CDK2/cyclin A, CDK2/cyclin E, CDK4/cyclin D, CDK5/35 and CDK6/cyclin D3. […]
(§1) By way of example, however, a typical protocol is summarised below.
Buffer C (containing 6 mM β-glycerophosphate, 30 mM nitrophenyl phosphate, 25 mM MOPS pH 7.0, 5 mM EGTA, 15 mM MgCl2, […] and 0.1 mM sodium orthovanadate) is made up as follows:
Affinity purified p34 cdc2(CDK1)/cyclinB from M-phase starfish (Marthasterias glacialis) in 20% glycerol is stored at −80° C. in chest freezer
Histone H1 (type III-S (Sigma) 4° C.) 5 mg/ml in buffer C.
[^32P]ATP 75 mM: Make up using (multiples of) the following proportions:
DMSO cannot exceed 1% in the assay mixture. Inhibitors are added at 1/10 final assay volume and 10× final strength. DMSO stocks must therefore be diluted to 10× final desired concentration in ≦10% DMSO, ≧90% buffer C.
All reagents (except DMSO stocks) should be kept on ice until assay initiated.
Start reaction in each tube at 30 second intervals b)y adding
5 ml [^32P]ATP vortexing and placing in rack in waterbath at 30° C.
Terminate reaction after 10 min at 30 second intervals in tubes in same order by removing […] reaction mix and spotting onto appropriately labelled filter, allowing to dry for 20-30 seconds and transferring to stirring 1% phosphoric acid.
Blank incubation is performed as above but without histone (add […] buffer C instead) Washing blank is […] ATP added directly to filter.
Wash filters 5-6 times 5 min each
Dry the filters on paper towel
Count in mini scintillation vials with 5 ml scintillant.
NB. The assay can be simplified by making up stock reaction mix as follows:
(1 part cdc2/cyclinB, 16 parts buffer C, 5 parts histone H1)×Number of assay tubes+1 and add […] to each assay tube containing […] buffer C±inhibitor.
It is still necessary, however, to make up assay blank (i.e. without histone) separately.

[3] = test system: CDK1(cdc2)/cyclin B complexes; settings: disclosed in WO 99/02162; cited from earlier work
[4] = biological target: CDK2 (Homo sapiens, UniProt P24941); test: Inhibition of CDK2 (CDK inhibition assay); type: biochemical; settings: values in nM; read-out: IC50 ± SD CDK2
Source text: Assays are available for testing the inhibitory activity of the compounds of interest against a range of CDK/cyclin complexes, including CDK1/cyclin A, CDK1/cyclin B, CDK1/cyclin F, CDK2/cyclin A, CDK2/cyclin E, CDK4/cyclin D, CDK5/35 and CDK6/cyclin D3.
Apart from reference compounds, the compounds listed are accompanied by an NU reference or identification code number.
as §1

[5] = biological target: CDK6 (Homo sapiens, UniProt Q00534); settings: cited from earlier work
[6] = biological target: CDK4 (Homo sapiens, UniProt P11802); settings: cited from earlier work
[7] = test system: many common kinases other than CDK's; settings: cited from earlier work

Sequence of CDK6 (Q00534 whole entry, species assumed): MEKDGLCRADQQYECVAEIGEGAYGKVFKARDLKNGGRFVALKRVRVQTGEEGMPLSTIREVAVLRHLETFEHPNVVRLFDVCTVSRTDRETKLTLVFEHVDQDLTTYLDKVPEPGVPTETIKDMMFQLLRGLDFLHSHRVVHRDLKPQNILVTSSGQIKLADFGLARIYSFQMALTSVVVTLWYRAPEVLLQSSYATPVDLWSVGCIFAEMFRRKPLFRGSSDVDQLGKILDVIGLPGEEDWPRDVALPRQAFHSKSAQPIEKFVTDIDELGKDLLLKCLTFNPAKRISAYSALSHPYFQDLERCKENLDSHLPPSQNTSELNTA
Sequence of CDK6 (P30281 whole entry partner, species assumed): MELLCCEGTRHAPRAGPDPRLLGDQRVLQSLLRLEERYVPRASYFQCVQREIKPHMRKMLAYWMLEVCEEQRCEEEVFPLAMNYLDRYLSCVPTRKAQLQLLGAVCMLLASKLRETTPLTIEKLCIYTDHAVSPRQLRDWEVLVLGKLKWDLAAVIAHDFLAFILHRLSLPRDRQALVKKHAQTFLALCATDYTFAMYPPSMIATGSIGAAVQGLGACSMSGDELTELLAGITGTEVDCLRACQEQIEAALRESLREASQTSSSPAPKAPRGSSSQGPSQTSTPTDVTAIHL
Sequence of CDK4 (P11802 whole entry, species assumed): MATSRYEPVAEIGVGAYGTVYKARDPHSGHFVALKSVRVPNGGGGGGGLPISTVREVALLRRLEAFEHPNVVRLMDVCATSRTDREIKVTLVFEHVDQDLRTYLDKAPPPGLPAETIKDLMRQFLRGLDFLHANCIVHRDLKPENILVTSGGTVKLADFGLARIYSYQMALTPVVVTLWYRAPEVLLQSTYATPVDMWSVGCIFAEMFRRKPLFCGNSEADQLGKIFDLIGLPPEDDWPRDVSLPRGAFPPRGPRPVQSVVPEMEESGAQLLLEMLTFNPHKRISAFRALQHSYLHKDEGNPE
Sequence of CDK4 (P24385 whole entry partner, species assumed): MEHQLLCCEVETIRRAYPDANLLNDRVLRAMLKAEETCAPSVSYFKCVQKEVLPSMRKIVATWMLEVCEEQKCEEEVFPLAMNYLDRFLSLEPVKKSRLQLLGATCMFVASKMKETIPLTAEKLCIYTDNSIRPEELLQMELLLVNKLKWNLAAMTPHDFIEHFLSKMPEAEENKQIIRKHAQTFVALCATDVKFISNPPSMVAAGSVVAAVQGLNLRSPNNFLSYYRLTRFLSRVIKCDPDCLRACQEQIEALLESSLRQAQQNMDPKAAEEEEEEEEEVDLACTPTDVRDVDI

| SMILES | IC50 [4] | IC50 ([2]; values in nM) | also measured |
| --- | --- | --- | --- |
| Nc1nc(OCC2CCCCC2)c2nc[nH]c2n1 [NU2058, 2-Amino-O^6-cyclohexylmethylpurine] | – | – | cytotoxicity [1]: cytotoxic; IC50 ([2]; values given in μM): 7 ± 0.7 µM; inhibitory activity against CDK1(cdc2)/cyclin B complexes [3]: very high inhibitory activity, comparable to that of olomoucine |
| O=S(=O)(Nc1ccccn1)c1ccc(Nc2nc(OCC3CCCCC3)c3nc[nH]c3n2)cc1 [NU6154, 4-(6-Cyclohexylmethoxy-9H-purin-2-ylamino)-(N-pyridin-2-yl)benzenesulfonamide] | 27 ± 2 nM | 0.02 ± 0.006 µM | – |
| CC1CCCCC1COc1nc(Nc2ccc(S(N)(=O)=O)cc2)nc2[nH]cnc12 (stereo not drawn) [NU6158, 4-[6-(2-Methyl-cyclohexylmethoxy)-9H-purin-2-ylamino]benzenesulfonamide] | 4 ± 0.3 nM | 0.006 ± 0.001 µM | – |
| Cc1cc(NS(=O)(=O)c2ccc(Nc3nc(OCC4CCCCC4)c4nc[nH]c4n3)cc2)nc(C)n1 [NU6160, 4-(6-Cyclohexylmethoxy-9H-purin-2-ylamino)-N-(2,6dimethylpyrimidin-4-yl)-benzenesulfonamide] | 33 ± 6 nM | 0.028 ± 0.002 µM | – |
| NS(=O)(=O)c1ccc(Nc2nc(OCC3CC=CCC3)c3nc[nH]c3n2)cc1 (stereo not drawn) [NU6162, 4-[6-(Cyclohex-3-enylmethoxy)-9H-purin-2ylamino]-benzenesulfonamide] | 10 ± 1 nM | 0.021 ± 0.004 µM | – |
| O=S(=O)(NCC(F)(F)F)c1ccc(Nc2nc(OCC3CCCCC3)c3nc[nH]c3n2)cc1 [NU6163, 4-(6-Cyclohexylmethoxy-9H-purin-2-ylamino)-N-(2,2,2-trifluoroethyl)-benzenesulfonamide] | 51 ± 16 nM | 0.066 ± 0.005 µM | – |
| NC(=O)Cc1ccc(Nc2nc(OCC3CCCCC3)c3nc[nH]c3n2)cc1 [NU6164, 2-[4-(6-Cyclohexylmethoxy-9H-purin-2-ylamino)-phenyl]acetamide] | 132 ± 20 nM | 0.136 ± 0.022 µM | – |
| NS(=O)(=O)c1ccc(Nc2nc(OCC3CCCC3)c3nc[nH]c3n2)cc1 [NU6166, 4-[6-Cyclopentylmethoxy-9H-purin-2-ylamino)-benzenesulfonamide] | 7 ± 1 nM | 0.014 ± 0.003 µM | – |
| C[C@H](O)CNS(=O)(=O)c1ccc(Nc2nc(OCC3CCCCC3)c3nc[nH]c3n2)cc1 [NU6167, 4-(6-Cyclohexylmethoxy-9H-purin-2-ylamino)-N-(2-hydroxypropyl)benzenesulfonamide] | 6 ± 1 nM | 0.009 ± 0.0002 µM | – |
| Cn1cnc2c(NCc3ccccc3)nc(NCCO)nc21 [Olomoucine, 2-(2-hydroxyethylamino)-6-benzylamino-9-methyl-purine] | – | – | activity against CDK6 [5]: neither has been found to be active; activity against CDK4 [6]: neither has been found to be active; inhibitory activity in relation to many common kinases other than CDK's [7]: total lack of inhibitory activity |
| CC[C@H](CO)Nc1nc(NCc2ccccc2)c2ncn(C(C)C)c2n1 [roscovitine, 6-(benzylamino)-2(R)-[{1-(hydroxy-methyl)propyl}amino]-9-isopropylpurine] | – | – | activity against CDK6 [5]: neither has been found to be active; activity against CDK4 [6]: neither has been found to be active |
